According to publication PMC10610044, “The Cocrystal of Ubiquinol: Improved Stability and Bioavailability” (Pharmaceutics, 2023):

What was measured:
[1] = design: method as in PMID 16551570; conditions: oral; cited from earlier work
[2] = design: method as in PMID 7666987; conditions: 5-year period; cited from earlier work
[3] = Open stability study (25 °C, 60% RH, open conditions); assay type: physicochemical; conditions: after 4 weeks, content at day 0 set as 100%
Experimental: Open stability was conducted at 25 °C, 60% RH, under open conditions without package and nitrogen protection. Accelerated stability was conducted at 40 °C, 75% RH, packaged with aluminum foil bags. The ubiquinol polymorph II and UQ-NC cocrystal were taken out at various intervals during exposure (open stability at 0, 3, 7, 14, 21, and 28 days and accelerated stability at 0, 1, 2, 3, and 6 months).
An Agilent 1260 series HPLC was used to determine the content of ubiquinol. The HPLC was equipped with a quaternary pump (G1311C), diode-array detector (G1315D), and a 4.6 mm × 100 mm, 2.7 μm packing L1 column. The detector was set at 290 nm. A mobile phase consisting of methanol and n-hexane (85/15, v/v) was run for 10 min at 1.5 mL/min. An injection of 20 μL was performed and the column temperature was set at 35 °C.

[4] = Powder dissolution in simulated intestinal fluid (SIF) with 0.5% tween 80; assay type: physicochemical; conditions: SIF with 0.5% tween 80, 37 °C, up to 180 min
Experimental: (§1) Powder dissolution experiments were conducted in simulated intestinal fluid (SIF) and simulated gastric fluid (SGF) with 0.5% tween 80 at 37 °C using a Mini-Bath dissolution device equipped with a Julabo ED-5 heater/circulator. SIF was prepared by dissolving 6.8 g of KH2PO4 in 500 mL of water and then the pH was adjusted to 6.8 with 0.1 mol/L og NaOH solution. In total, 10 g of pancreatin was added and finally the solution was diluted to 1000 mL with water to obtain the SIF. SGF was prepared by mixing 16.4 mL of 10% HCl solution, 800 mL of water, and 10g of pepsin. Finally, the solution was diluted to 1000 mL with water to obtain the SGF. A total of 9.3 mg of cocrystal and 8.2 mg of polymorph II were added into 20 mL of the buffer solution. The stirring speed was set to 75 rpm. To minimize the size effect on the dissolution results, the ubiquinol cocrystal and polymorph II were sieved through 80-mesh sieves. Samples were collected at 5, 15, 20, 25, 30, 40, 50, 60, 80, 130, and 180 min each time, and were filtered through the 0.45 μm nylon filters. The concentration of ubiquinol was determined using HPLC. The detailed HPLC analysis method is described in Section 2.10.
(§2) An Agilent 1260 series HPLC was used to determine the content of ubiquinol. The HPLC was equipped with a quaternary pump (G1311C), diode-array detector (G1315D), and a 4.6 mm × 100 mm, 2.7 μm packing L1 column. […]

[5] = design: method as in earlier work; conditions: after four weeks, open conditions, 25 °C; cited from earlier work
[6] = Powder dissolution in simulated gastric fluid (SGF) with 0.5% tween 80; assay type: physicochemical; conditions: SGF with 0.5% tween 80, 37 °C, up to 180 min
Experimental: as §1, §2

[7] = Pharmacokinetic study in male Sprague Dawley rats, plasma total coenzyme Q10; assay type: in vivo; conditions: rat, gavage, 100 mg/kg as ubiquinol equivalents
Experimental: Pharmacokinetic experiments were conducted on male Sprague Dawley rats to compare the oral exposure of the UQ-NC cocrystal and the ubiquinol marketed form II. The two ubiquinol samples were dispersed homogeneously in 0.5% CMC-Na (sodium carboxymethylcellulose) and 0.5% tween 80 aqueous solution to obtain the suspension of 10 mg/mL of ubiquinol. Twelve male Sprague Dawley rats weighing […] were randomly allocated into two groups (six rats in each group). Each received gavage administration at a dose of 100 mg/kg body (expressed as ubiquinol equivalents). After this administration, approximately 200 μL of blood sample was collected from the orbital sinus into heparinized tubes at 0, 1, 2, 3, 4, 6, 8, and 24 h for each rat.
In this experiment, the whole process was protected from light. An aliquot of 100 µL of plasma sample was added to 100 µL of p-benzoquinone and then placed for 10 min after vortex mixing. Next, a 400 µL methanol solution containing 1 µg/mL of IS Q9 and 1mL of n-hexane was added. The mixture was vortexed for 5 min and centrifuged at 14,000 rpm for 1 min. In total, 0.825 mL of the upper extract was transferred and dried under the condition of 30 °C nitrogen, and 200 µL of ethanol equal solution was added for re dissolution, vortexed, and mixed well. An aliquot of 4.00 µL of supernatant was injected for an LC-MS/MS analysis.
The quantification of coenzyme Q10 in the plasma samples was accomplished using an AB Sciex Triple Quad 4500 LC-MS instrument manufactured by SCIEX Co., Ltd., Framingham, MA, USA. Chromatography consisted of a Column NO.ZORBAX Eclipse Plus C18 (50 mm × 4.6 mm, 1.8 μm). The mobile phase consisted of acetonitrile and alcohol (50/50, v/v) at a flow rate of 1.0 mL min-1. An injection of 10 μL was performed and the column temperature was set to 40 °C. The detector was set at 290 nm. Multiple reaction monitoring modes (MRM) were used to perform the detection and quantification, with m/z 863.8→197.4 for coenzyme Q10. The DAS 2.0 program was used to perform the PK analysis.

[8] = design: method as in PMID 33673604; conditions: 1500 mg/day, multiple-system atrophy; cited from earlier work
[9] = design: method as in doi:10.1016/j.jff.2008.09.010; conditions: single 100 mg/day dose, individuals of >60 years; cited from earlier work
[10] = 200 mg/day with a main meal, 2-week supplementation, ten older men; cited from earlier work
[11] = design: method as in PMID 19096107; conditions: patients changed from ubiquinone to ubiquinol; cited from earlier work
human dermal fibroblasts = tested on: human dermal fibroblasts; design: method as in PMID 33482334; conditions: compared to ubiquinone; cited from earlier work

COC1=C(OC)C(=O)C(C/C=C(\C)CC/C=C(\C)CC/C=C(\C)CC/C=C(\C)CC/C=C(\C)CC/C=C(\C)CC/C=C(\C)CC/C=C(\C)CC/C=C(\C)CCC=C(C)C)=C(C)C1=O [CoQ10, Coenzyme Q10]
orally administered absorption efficiency [1]: 2–3%

NC(=O)c1cccnc1 [nicotinamide]
reduction in the development of insulin-dependent diabetes mellitus [2]: 50%

COc1c(O)c(C)c(C/C=C(\C)CC/C=C(\C)CC/C=C(\C)CC/C=C(\C)CC/C=C(\C)CC/C=C(\C)CC/C=C(\C)CC/C=C(\C)CC/C=C(\C)CCC=C(C)C)c(O)c1OC [polymorph I, ubiquinol]
assay value of ubiquinol [3]: 28.3%

COc1c(O)c(C)c(C/C=C(\C)CC/C=C(\C)CC/C=C(\C)CC/C=C(\C)CC/C=C(\C)CC/C=C(\C)CC/C=C(\C)CC/C=C(\C)CC/C=C(\C)CCC=C(C)C)c(O)c1OC [polymorph II, ubiquinol]
AUC (dissolution) [4]: 4500 µg·h/mL | Cmax (dissolution, ubiquinol concentration) [4]: 90000 ng/mL | ubiquinol transformed to ubiquinone [5]: about 6.9% | assay value of ubiquinol [3]: 94.2% | AUC (dissolution) [6]: 1500 µg·h/mL | Cmax (dissolution, ubiquinol concentration) [6]: 30000 ng/mL | AUC0–8h [7]: 0.1919 µg·h/mL | Cmax [7]: 71.2 ng/mL | MRT [7]: 43.3 h | T1/2 [7]: 29.9 h | Tmax [7]: 8.0 h

COc1c(O)c(C)c(C/C=C(\C)CC/C=C(\C)CC/C=C(\C)CC/C=C(\C)CC/C=C(\C)CC/C=C(\C)CC/C=C(\C)CC/C=C(\C)CC/C=C(\C)CCC=C(C)C)c(O)c1OC [ubiquinol]
decline in UMSARS part 2 score compared to placebo [8]: significantly smaller decline | tolerability [8]: well-tolerated | increase of plasma AUC0–72h compared with ubiquinone [9]: 430% | plasma AUC0–72h compared with subjects receiving ubiquinone [9]: 4.3 fold | plasma CoQ10 status [10]: significant increase | symptoms of heart failure [11]: significantly improved | reverting the expression of the senescent phenotype (β-galactosidase positivity, p21, collagen type 1, elastin) (human dermal fibroblasts): more efficient
